Measured values from patent US20210244686A1, “Novel Systems And Methods For The Therapeutic Use of Cannabinoids or Cannabinoid Analogs to Increase The Lipid Order of Cholesterol Containing Cell Membranes” (The Regents of the University of Colorado a body corporate, priority 2018, published 2021).

Legend:
[1] = tested on: SKNBE2 neuroblastoma cells; assay: Flow cytometric analysis of rhodamine-glibenclamide staining in live cells; type: cell-based, human; conditions: live cells, flow cytometry
[2] = tested on: endoplasmic reticulum in SKNBE2 and HaCaT keratinocyte cells; assay: Confocal microscopy of rhodamine-glibenclamide staining, ER structure; type: cell-based, human; conditions: for alteration of the structure of the endoplasmic reticulum: SKNBE2 and HaCaT keratinocyte cells
Procedure: FIG. 16. Rhodamine-glibenclamide staining in live cells is visualized by confocal microscopy in live cells. ER structure is perturbed after 2 hours of exposure to CBD and o-1602, but not for o-1821 exposure.

HEK293T cells = assay: Live cell microscopy apoptosis assay (caspase 3/7 dye); type: cell-based; conditions: for apoptotic response to combinatorial 25-hydroxy cholesterol/CBD treatment: 25-hydroxy cholesterol 15 μg/ml, CBD 20 μM, U18666A 10 μM or VULM 1457 5 μM, 24 hours
Procedure: In order to gain further insight into the sensitivity of CBD treated cells to 25-hydroxy cholesterol, the present inventors repeated the apoptosis assay in SK-N-BE(2) and HEK293T cells with combinatorial 25-hydroxy cholesterol/CBD stimulation using sublethal doses of 25-hydroxy cholesterol (15 μg/ml) and CBD (20 μM) in the presence or absence of either the chemical inhibitor of cholesterol transport (U18666A, 10 μM) or cholesterol storage (VULM 1457, 5 μM).
FRAP experiments reveal that DHA and CBD have opposing effects on the lateral diffusion of fluorescently labelled cholesterol in synthetic membranes. Although this implies that CBD increases lipid order and that DHA decreases lipid order, it remains unclear how relevant these biophysical effects of CBD and DHA are to cellular physiology. As a result, the present inventors sought to determine whether CBD and DHA have opposing effects on cells. To this end, the present inventors repeated the live cell apoptosis assays in cells exposed to increasing doses of DHA to determine how DHA affects cell death.

[3] = FRAP of NBD-cholesterol in synthetic membrane monolayers; conditions: DHA 20 μM plus CBD
Description: CBD's ability to affect cholesterol orientation in both synthetic and cell derived ER membranes implies that CBD may contribute to increased lipid order. The ability of cholesterol oxidase assays to reveal alterations in lipid order has been previously reported in studies noting that cholesterol oxidase can preferentially target caveolar domains, which are ordered lipid domains. Another hallmark of lipid order is a decrease in lateral diffusion of lipids. As a result, the present inventors aimed to measure CBD's ability to perturb the lateral diffusion of fluorescently labelled cholesterol (NBD-cholesterol) in synthetic membranes. The present inventors deposited PC SUVs containing 20% moles of cholesterol and 2% moles NBD-cholesterol on glass-bottom multi-well imaging plates, followed by ultra-sonification to construct fluorescently labelled membrane monolayers. Using these monolayers and confocal microscopy, the inventor's performed fluorescence recovery after photobleaching (FRAP) experiments to measure the kinetics of recovery of fluorescent cholesterol. […] This effect of CBD on lateral diffusion could be rescued with simultaneous treatment with the lipid disordering agent DHA (FIGS. 6G, I). There are two proposed models for how DHA affects cholesterol in membranes. […]

SK-N-BE(2) cells = assay: Live cell microscopy apoptosis assay (caspase 3/7 dye); conditions: for apoptotic response to combinatorial 25-hydroxy cholesterol/CBD treatment: 25-hydroxy cholesterol 15 μg/ml, CBD 20 μM, U18666A 10 μM or VULM 1457 5 μM, 24 hours
Procedure: To accurately measure cellular apoptosis over time, the present inventors performed live cell microscopy experiments with cells loaded with both DNA and caspase 3/7 dyes, which enables continuous and precise quantification of apoptosis at the single cell level.
Cell viability for SK-N-BE(2) cells was conducted using a fluorometric cell viability assay using Resazurin (PromoKine) according to the manufacturer's instructions. […] Dyes were added at the time of seeding, 18-24 hours prior to performing experiments.
Experiments were performed using an ImageXpress MicroXL microscope and a 10× objective, where images were acquired for each well at the indicated time-points using DAPI and FITC filter sets. […] Percent apoptotic cells was calculated from the sum of apoptotic cell pixels divided by the sum of all cell pixels for each field of view.

[4] = DHA 75 μM with MBCD 300 μM or CBD 6.25 μM

| Molecule | rhodamine-glibenclamide fluorescence [1] | alteration of the structure of the endoplasmic reticulum [2] | also measured |
| --- | --- | --- | --- |
| CC(C)c1c(C(=O)Nc2ccccc2)c(-c2ccccc2)c(-c2ccc(F)cc2)n1CC[C@@H](O)C[C@@H](O)CC(=O)O [Atorvastatin] | Enhanced fluorescence |  |  |
| C=C(C)[C@@H]1CCC(C)=C[C@H]1c1c(O)cc(CCCCC)c(C(=O)O)c1O [Cannabidiolic Acid, cannabidiolic acid] | Enhanced fluorescence | not |  |
| CC/C=C\C/C=C\C/C=C\C/C=C\C/C=C\C/C=C\CCC(=O)O [DHA] |  |  | apoptosis (HEK293T cells; relatively low doses of DHA): induce apoptosis; effect of CBD on lateral diffusion with simultaneous DHA [3]: rescued; apoptosis (SK-N-BE(2) cells; relatively low doses of DHA): induce apoptosis |
| O=C1[C@H](CC[C@H](O)c2ccc(F)cc2)[C@@H](c2ccc(O)cc2)N1c1ccc(F)cc1 [Ezetimibe] | Enhanced fluorescence |  |  |
| CCCCCCC(C)(C)c1cc(OC)c(C2C=C(CO)C3CC2C3(C)C)c(OC)c1 (stereo not drawn) [HU-308, 4-[4-(1,1-dimethylheptyl)-2,6-dimethoxyphenyl]-6,6-dimethyl-bicyclo[3.1.1]hept-2-ene-2-methanol] | Enhanced fluorescence |  |  |
| CCN(CC)CCO[C@H]1CC[C@@]2(C)C(=CC[C@@H]3[C@@H]2CC[C@]2(C)C(=O)CC[C@@H]32)C1 [U18666A] |  |  | apoptotic response to combinatorial 25-hydroxy cholesterol/CBD treatment (HEK293T cells): restore the apoptotic response; apoptotic response to combinatorial 25-hydroxy cholesterol/CBD treatment (SK-N-BE(2) cells): restore the apoptotic response |
| CC(C)c1cccc(C(C)C)c1NC(=O)Nc1ccc(Sc2ccc([N+](=O)[O-])cc2)cc1 [VULM 1457] |  |  | apoptotic response to combinatorial 25-hydroxy cholesterol/CBD treatment (HEK293T cells): restore the apoptotic response; apoptotic response to combinatorial 25-hydroxy cholesterol/CBD treatment (SK-N-BE(2) cells): restore the apoptotic response |
| C=C(C)[C@@H]1CCC(C)=C[C@H]1c1c(O)cc(O)cc1CCCCC [abnormal CBD, 4-[(1R,6R)-3-Methyl-6-(1-methylethenyl)-2-cyclohexen-1-yl]-5-pentyl-1,3-benzenediol] | Enhanced fluorescence | not |  |
| C=C(C)[C@@H]1CCC(C)=C[C@H]1c1c(C)cc(O)cc1O [o-1602, 5-methyl-4-[(1R,6R)-3-methyl-6-(1-methylethenyl)-2-cyclohexen-1-yl]-1,3-benzenediol] | Enhanced fluorescence | observed | ER structure ([2]; after 2 hours of exposure, live cells): perturbed |
| C[C@H](CO)NC(=O)CCC/C=C\C/C=C\C/C=C\C/C=C\C(C)(C)CCCCC#N [o-1821] | Enhanced fluorescence | not |  |
| methyl beta cyclodextrin [MBCD] |  |  | effect on DHA induced apoptosis (HEK293T cells; [4]): delay apoptosis; effect on DHA induced apoptosis (SK-N-BE(2) cells; [4]): completely cancel apoptosis |
